Results taken from US20260008787A1, “FUSED RING KRAS INHIBITORS FOR TREATING DISEASE” (BLOSSOMHILL THERAPEUTICS, INC., priority 2022, published 2026).

Tests used:
[1] = system: GP2D (KRAS G12D); experiment: Cell proliferation assay (CellTiter-Glo, 72 hours), GP2D; assay type: cell-based; conditions: GP2d, 72 h, 384-well, CellTiter-Glo 2.0
Description: (§1) Two thousand KRAS mutant cells per well were seeded in 384-well white plate and then treated with indicated compounds for 72 hours at 37° C. and 5% CO2. Cell proliferation was measured using CellTiter-Glo 2.0 luciferase-based ATP detection assay (Promega, Madison, WI) following the manufacturer's protocol. IC50 values were determined using Prism software (GraphPad Software, San Diego, CA).

[2] = system: SW620 (KRAS G12V); experiment: Cell proliferation assay (CellTiter-Glo, 72 hours), SW620; assay type: cell-based; conditions: Homo sapiens, SW-620, 72 h, 384-well, CellTiter-Glo 2.0
Description: as §1

[3] = system: AGS (G12D); experiment: Cell proliferation assay (CellTiter-Glo, 72 hours), AGS; assay type: cell-based; conditions: 72 h, 384-well, CellTiter-Glo 2.0
Description: as §1

[4] = target: KRAS G12D (Homo sapiens, UniProt P01116, G12D); experiment: biochemical
Chain of KRAS G12D (P01116 1-188 isoform P01116-2 G12D): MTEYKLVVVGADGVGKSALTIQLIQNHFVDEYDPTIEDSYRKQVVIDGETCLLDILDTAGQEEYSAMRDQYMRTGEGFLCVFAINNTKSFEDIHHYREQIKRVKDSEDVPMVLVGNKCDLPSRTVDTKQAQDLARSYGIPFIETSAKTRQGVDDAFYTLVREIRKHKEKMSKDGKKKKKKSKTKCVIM

[5] = target: KRAS G12V (Homo sapiens, UniProt P01116, G12V); experiment: biochemical
Chain of KRAS G12V (P01116 1-188 isoform P01116-2 G12V): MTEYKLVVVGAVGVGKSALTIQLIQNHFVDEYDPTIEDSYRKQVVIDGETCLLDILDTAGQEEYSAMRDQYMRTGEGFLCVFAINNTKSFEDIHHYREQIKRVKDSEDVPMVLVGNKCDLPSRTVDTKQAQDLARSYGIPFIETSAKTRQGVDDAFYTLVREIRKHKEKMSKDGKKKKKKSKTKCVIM

| SMILES | IC50 [1] [µM] | IC50 [2] [µM] | IC50 [3] [µM] | IC50 [4] [µM] | IC50 [5] [µM] |
| --- | --- | --- | --- | --- | --- |
| C#Cc1c(F)ccc2cc(O)cc(-c3nc4c5c(nc(OC[C@@]67CCCN6C[C@@H](O)C7)nc5c3F)N3CCCC[C@H]3CO4)c12 [Example 101, (2S,7aS)-7a-({[(8aS)-5-(8-ethynyl-7-fluoro-3-hydroxynaphthalen-1-yl)-4-fluoro-8,8a,9,10,11,12-hexahydro-7-oxa-1,3,6,12a-tetraazabenzo[4,5]cyclohepta[1,2,3-de]naphthalen-2-yl]oxy}methyl)hexahydro-1H-pyrrolizin-2-ol] | 0.88 | > 3 | > 3 | – | – |
| C#Cc1c(F)ccc2cc(O)cc(-c3nc4c5c(nc(OC[C@@]67CCCN6C[C@H](F)C7)nc5c3F)N[C@H]3CCC[C@H]3O4)c12 [Example 102, 5-ethynyl-6-fluoro-4-[(7aR,10aS)-4-fluoro-2-{[(2R,7aS)-2-fluorotetrahydro-1H-pyrrolizin-7a(5H)-yl]methoxy}-7a,8,9,10,10a,11-hexahydro-7-oxa-1,3,6,11-tetraazanaphtho[1,8-fg]azulen-5-yl]naphthalen-2-ol] | > 3 | > 3 | > 3 | – | – |
| C#Cc1c(F)ccc2cc(O)cc(-c3nc4c5c(nc(OC[C@@]67CCCN6C[C@H](F)C7)nc5c3F)N3CC(F)CC[C@H]3CO4)c12 (stereo partly drawn) [Example 105, 4-[(4R,7S)-4,13-difluoro-16-[[(2R,8S)-2-fluoro-1,2,3,5,6,7-hexahydropyrrolizin-8-yl]methoxy]-9-oxa-2,11,15,17-tetrazatetracyclo[8.7.1.0^2,7.0^14,18]octadeca-1 (17),10 (18),11,13,15-pentaen-12-yl]-5-ethynyl-6-fluoro-naphthalen-2-ol] | 0.0216 | 0.0862 | 0.081 | – | – |
| C#Cc1c(F)ccc2cc(O)cc(-c3nc4c5c(nc(OC[C@@]67CCCN6C[C@H](F)C7)nc5c3F)N3C=CCC[C@H]3CO4)c12 [Example 107, 5-ethynyl-6-fluoro-4-[(7S)-13-fluoro-16-[[(2R,8S)-2-fluoro-1,2,3,5,6,7-hexahydropyrrolizin-8-yl]methoxy]-9-oxa-2,11,15,17-tetrazatetracyclo [8.7.1.0^2,7.0^14,18]octadeca-1 (17),3,10 (18),11,13,15-hexaen-12-yl]naphthalen-2-ol] | 0.749 | 1.04 | 1.13 | – | – |
| C#Cc1c(F)ccc2cc(O)cc(-c3nc4c5c(nc(OC[C@@]67CCCN6C[C@H](F)C7)nc5c3F)N(CC)CCO4)c12 [Example 108, 4-(10-ethyl-4-fluoro-2-{[(2R,7aS)-2-fluorotetrahydro-1H-pyrrolizin-7a(5H)-yl]methoxy}-9,10-dihydro-8H-7-oxa-1,3,6,10-tetraazacyclohepta[1,2,3-de]naphthalen-5-yl)-5-ethynyl-6-fluoronaphthalen-2-ol] | 0.0138 | 0.195 | 0.0427 | – | – |
| C#Cc1c(F)ccc2cc(O)cc(-c3nc4c5c(nc(OC[C@@]67CCCN6C[C@H](F)C7)nc5c3F)N(Cc3ccccc3)CCC4)c12 [Example 112, 4-[13-benzyl-6-fluoro-3-[[(2R,8S)-2-fluoro-1,2,3,5,6,7-hexahydropyrrolizin-8-yl]methoxy]-2,4,8,13-tetrazatricyclo [7.4.1.05,14]tetradeca-1,3,5,7,9 (14)-pentaen-7-yl]-5-ethynyl-6-fluoro-naphthalen-2-ol] | > 3 | – | > 3 | 0.321 | 0.0401 |
| CCc1c(F)ccc2cc(O)cc(-c3nc4c5c(nc(OC[C@@]67CCCN6C[C@H](F)C7)nc5c3F)N3CCC[C@](C)(O)[C@@H]3CO4)c12 [Example 114] | > 3 | – | > 3 | 0.929 | 1.2 |
| CCc1c(F)ccc2cc(O)cc(-c3nc4c5c(nc(OC[C@@]67CCCN6C[C@H](F)C7)nc5c3F)NCCC4)c12 [Example 117, 5-ethyl-6-fluoro-4-(4-fluoro-2-{[(2R,7aS)-2-fluorotetrahydro-1H-pyrrolizin-7a(5H)-yl]methoxy}-7,8,9,10-tetrahydro-1,3,6,10-tetraazacyclohepta[1,2,3-de]naphthalen-5-yl)naphthalen-2-ol] | > 3 | > 3 | > 3 | – | – |
| C#Cc1c(F)ccc2cc(O)cc(-c3nc4c5c(nc(OC[C@@]67CCCN6C[C@H](F)C7)nc5c3F)N3C[C@@](C)(O)CC[C@H]3CO4)c12 [Example 120, (8aS,11S)-5-(8-ethynyl-7-fluoro-3-hydroxynaphthalen-1-yl)-4-fluoro-2-{[(2R,7aS)-2-fluorotetrahydro-1H-pyrrolizin-7a(5H)-yl]methoxy}-11-methyl-8,8a,9,10,11,12-hexahydro-7-oxa-1,3,6,12a-tetraazabenzo[4,5]cyclohepta[1,2,3-de]naphthalen-11-ol] | > 3 | > 3 | > 3 | – | – |
| CCc1c(F)ccc2cc(O)cc(-c3nc4c5c(nc(OC[C@@]67CCCN6C[C@H](F)C7)nc5c3F)N(C)[C@@H](C)CO4)c12 [Example 123, 5-ethyl-6-fluoro-4-[(9S)-4-fluoro-2-{[(2R,7aS)-2-fluorotetrahydro-1H-pyrrolizin-7a(5H)-yl]methoxy}-9,10-dimethyl-9,10-dihydro-8H-7-oxa-1,3,6,10-tetraazacyclohepta[1,2,3-de]naphthalen-5-yl]naphthalen-2-ol] | 0.0405 | 0.15 | 0.375 | – | – |
| CCc1c(F)ccc2cc(O)cc(-c3nc4c5c(nc(OC[C@@]67CCCN6C[C@H](F)C7)nc5c3F)N[C@@H](CO)CO4)c12 [Example 124, 5-ethyl-6-fluoro-4-[(9S)-4-fluoro-2-{[(2R,7aS)-2-fluorotetrahydro-1H-pyrrolizin-7a(5H)-yl]methoxy}-9-(hydroxymethyl)-9,10-dihydro-8H-7-oxa-1,3,6,10-tetraazacyclohepta[1,2,3-de]naphthalen-5-yl]naphthalen-2-ol] | 1.76 | 3.32 | 3.31 | – | – |
| C#Cc1c(F)ccc2cc(O)cc(-c3nc4c5c(nc(OC[C@@]67CCCN6C[C@H](F)C7)nc5c3F)N(CC(F)F)[C@@H](C)CO4)c12 [Example 128, 4-[(9S)-10-(2,2-difluoroethyl)-4-fluoro-2-{[(2R,7aS)-2-fluorotetrahydro-1H-pyrrolizin-7a(5H)-yl]methoxy}-9-methyl-9,10-dihydro-8H-7-oxa-1,3,6,10-tetraazacyclohepta[1,2,3-de]naphthalen-5-yl]-5-ethynyl-6-fluoronaphthalen-2-ol] | 0.00581 | 0.00631 | 0.0146 | – | – |
| C#Cc1c(F)ccc2cc(O)cc(-c3nc4c5c(nc(OC[C@@]67CCCN6C[C@H](F)C7)nc5c3F)N(C)C3(CCOC3)CO4)c12 (stereo partly drawn) [Example 129, 5-ethynyl-6-fluoro-4-[6-fluoro-3-[[(2R,8S)-2-fluoro-1,2,3,5,6,7-hexahydropyrrolizin-8-yl]methoxy]-13-methyl-spiro[10-oxa-2,4,8,13-tetrazatricyclo[7.4.1.05,14]tetradeca-1,3,5,7,9 (14)-pentaene-12,3′-tetrahydrofuran]-7-yl]naphthalen-2-ol] | > 3 | > 3 | > 3 | – | – |
| C#Cc1c(F)ccc2cc(O)cc(-c3nc4c5c(nc(OC[C@@]67CCCN6C[C@H](F)C7)nc5c3F)N(C[C@@H](C)O)[C@@H](C)CO4)c12 [Example 130, 5-ethynyl-6-fluoro-4-((S)-4-fluoro-2-(((2R,7aS)-2-fluorotetrahydro-1H-pyrrolizin-7a(5H)-yl)methoxy)-10-((R)-2-hydroxypropyl)-9-methyl-9,10-dihydro-8H-7-oxa-1,3,6,10-tetraazacyclohepta[de]naphthalen-5-yl)naphthalen-2-ol] | 0.115 | 0.131 | 0.197 | – | – |
| CCc1c(F)ccc2cc(O)cc(-c3nc4c5c(nc(OC[C@@]67CCCN6C[C@H](F)C7)nc5c3F)N(CC(F)F)[C@@H](C)CO4)c12 [Example 131, 4-[(9S)-10-(2,2-difluoroethyl)-4-fluoro-2-{[(2R,7aS)-2-fluorotetrahydro-1H-pyrrolizin-7a(5H)-yl]methoxy}-9-methyl-9,10-dihydro-8H-7-oxa-1,3,6,10-tetraazacyclohepta[1,2,3-de]naphthalen-5-yl]-5-ethyl-6-fluoronaphthalen-2-ol] | 0.0239 | 0.0427 | 0.0653 | – | – |
| CCc1c(F)ccc2cc(O)cc(-c3nc4c5c(nc(OC[C@@]67CCCN6C[C@H](F)C7)nc5c3F)N(C)C3(CCOC3)CO4)c12 (stereo partly drawn) [Example 132, 5-ethyl-6-fluoro-4-(4-fluoro-2-{[(2R,7aS)-2-fluorotetrahydro-1H-pyrrolizin-7a(5H)-yl]methoxy}-10-methyl-8H,10H-spiro[7-oxa-1,3,6,10-tetraazacyclohepta[1,2,3-de]naphthalene-9,3′-oxolan]-5-yl)naphthalen-2-ol] | > 3 | 1.38 | > 3 | – | – |
| C#Cc1c(F)ccc2cc(O)cc(-c3nc4c5c(nc(OC[C@@]67CCCN6C[C@H](F)C7)nc5c3F)N(CC(F)(F)F)[C@@H](C)CO4)c12 [Example 133, 5-ethynyl-6-fluoro-4-((S)-4-fluoro-2-(((2R,7aS)-2-fluorotetrahydro-1H-pyrrolizin-7a(5H)-yl)methoxy)-9-methyl-10-(2,2,2-trifluoroethyl)-9,10-dihydro-8H-7-oxa-1,3,6,10-tetraazacyclohepta[de]naphthalen-5-yl)naphthalen-2-ol] | 0.0213 | 0.0258 | 0.0499 | – | – |
